Data on four compounds can be found in paper PMC7552967, “Anti-Melanoma Activities of Artemisone and Prenylated Amino-Artemisinins in Combination With Known Anticancer Drugs” (Frontiers in Pharmacology, 2020).

The subject of series [1] is HaCat normal keratinocytes. Description: LDH release membrane integrity assay, HaCat. As to conditions: compounds at their IC50 concentrations, 24 h; combinations 1:1; relative to maximum release. An excerpt: In order to determine cell membrane integrity, the CytoTox-ONE™ Homogeneous Membrane Integrity Assay (Promega, Madison, WO, USA) was employed. This fluorometric assay measures the release of LDH from cells with damaged cell membranes. […] The manufacturer’s instructions were followed to determine the fluorescence at an excitation wavelength of 560 nm and an emission wavelength of 590 nm. In order to calculate the percentage cytotoxicity, the average fluorescent values of the background medium were subtracted from all average fluorescent values of the experimental samples and the positive control. Cytotoxicity is expressed as a percentage relative to the positive control, which is assumed to be responsible for 100% LDH release. The fold increase in LDH release was taken as the indication of the selectivity toward melanoma cell membranes, calculated as the […]. All experiments were performed at least in triplicate and independently repeated. Statistical significant differences were calculated with one-way ANOVA.
Results are expressed relative to the untreated control and the maximum release sample, which was set as having 0% and 100% LDH release respectively. The LDH released from the nonmalignant HaCat cells and the A375 melanoma cells was then used to deduce the selectivity of the compounds against melanoma cell membranes.
For orientation: LDH leaks from cells whose membrane has failed.

Series [2] relates to HaCat normal keratinocytes. Nature of the series: MTT cell viability assay, HaCat. Type of series: cell-based, human. To be noted: Homo sapiens, HaCaT, 24 h, combinations 1:1, mean ± SD, read-out: HaCat IC50. An excerpt:
(§1) The human cell lines TK10 (human kidney adenocarcinoma), UACC62 (human melanoma) and MCF7 (human breast adenocarcinoma) were obtained from the National Cancer Institute (NCI) as part of a panel widely studied for drug screening and molecular target identification. […] The nontumorigenic human immortalized keratinocyte (HaCaT) cells were a kind donation by the School of Anatomical Sciences, Faculty of Health Sciences, University of the Witwatersrand, South Africa. […] All reagents were of analytical grade and were obtained from Merck (Darmstadt, Germany) unless stated otherwise. Cells were cultured in Dulbecco’s modified essential medium (DMEM; Hyclone, GE healthcare, South Logan, UT, USA) containing 10% fetal bovine serum (FBS), 1% penicillin/streptomycin, 1% 200 mM L-Glutamine and 1% nonessential amino acids (Lonza, Basel, Switzerland) at 37°C in a humidified atmosphere of 5% CO2. Stock solutions of the compounds were prepared in dimethyl sulfoxide (DMSO). All subsequent dilutions were prepared in serum-free DMEM and vehicle controls were included in all experiments
(§2) The growth inhibitory effects of the compounds were tested in the 3-cell line panel consisting of TK10 (renal), UACC62 (melanoma) and MCF7 (breast) cancer cells by Sulforhodamine B (SRB) assay. […] Compounds prepared in DMSO were tested at 0.01–100 µM serial dilutions to establish initial inhibitory concentrations. […] After 24 h exposure to compounds, growth medium was removed, cells rinsed twice with 1 ml of phosphate buffered saline (PBS) and 100 µl fresh serum-free medium containing 5 mg/ml MTT solution was added MTT solution was prepared fresh for each analysis). Cells were then incubated for 4 h at 37°C, after which the MTT was removed and substituted with 100 µl dimethyl sulfoxide (DMSO) to dissolve the formazan crystals for an h at 37°C. After incubation, cell viability was determined using a microplate reader (BioTek®, Vermont, USA) at an excitation wavelength of 560 nm and emission wavelength of 630 nm with DMSO measured as a blank. Cell viability was expressed as a percentage relative to the untreated control, which is assumed to be 100% viable. For a positive control, cells were treated with 0.01% Triton-X 100 (Sigma-Aldrich, St Louis, MO, USA) for a period of 4 h. Using the MTT assay data, IC50 values were calculated using GraphPad Prism 8. Data were normalized to the positive (alleged to be 0% viable) and negative controls (presumed to be 100% viable), followed by the log-transformation of the concentration values. […] A crude therapeutic index (fold decrease in IC50 value) was calculated as the IC50 of the noncancerous cell-line/IC50 of the cancerous cell line. […] Drug interactions were evaluated for synergism, additivity or antagonism using multiple drug effect analysis, based on the median-principle. Cells were treated with the drug combinations for 24 h and analyzed. The CompuSyn (ComboSyn, Inc. NJ, USA) software package was used to generate the median-effect plots and combination index plots. […] All experiments were performed at least in triplicate and repeated independently.
(§3) Next, the quantitative colorimetric MTT assay was used to determine in vitro cell viability with A375 (melanoma) and HaCat (nonmalignant keratinocyte) cells. […] The IC50 was used to determine a crude therapeutic index (fold increase or decline in IC50).
Background: Tetrazolium assays rely on reduction of a dye to a coloured formazan, in cell work by metabolically active cells.

The next series deals with A375 melanoma cells. Nature of the series: MTT cell viability assay, A375. Type of series: cell-based, human. To be noted: for IC50: Homo sapiens, A-375, MTT, 24 h, combinations 1:1, mean ± SD; for Therapeutic index (TI): IC50 of HaCat cells/IC50 of A375 cells.
Source text: as §1, §2, §3

With `CC(C)=CCC/C(C)=C/CC/C(C)=C/CN1CCN([C@@H]2O[C@@H]3O[C@@]4(C)CC[C@H]5[C@H](C)CC[C@@H]([C@H]2C)[C@@]35OO4)CC1` [Farnesylpiperazine-DHA 7, farnesylpiperazine-DHA], the “HaCat (% LDH release)” value in series [1] stood at 18 ± 0.67%. The CC50 in series [2] worked out at 70.6 ± 1.07 µM. Further, in the series on A375 melanoma cells, the IC50 (commonly the concentration needed to halve the response being measured) is 32.6 ± 1.08 µM and the “Therapeutic index (TI)” value was found to be 2.1.
For `C[C@H]1[C@H](N2CCS(=O)(=O)CC2)O[C@@H]2O[C@@]3(C)CC[C@H]4[C@H](C)CC[C@@H]1[C@@]24OO3` [Artemisone 4, artemisone], in that order: 19 ± 0.79%, 268.8 ± 1.97 µM, 95.7 ± 2.31 µM and 2.8.
Consider `C[C@@H]1CC[C@H]2[C@@H](C)C(=O)O[C@@H]3O[C@@]4(C)CC[C@@H]1[C@]32OO4` [Artemisinin 2, artemisinin], for which the “HaCat (% LDH release)” value in series [1] is on record as 18 ± 0.84%. Moreover, in series [2], the CC50 amounted to 381 ± 5.36 µM. In the series with A375 melanoma cells, the IC50 worked out at 150 ± 3.61 µM and the “Therapeutic index (TI)” value was found to be 2.5.
In the case of `CC(C)=CCC/C(C)=C/CN1CCN([C@@H]2O[C@@H]3O[C@@]4(C)CC[C@H]5[C@H](C)CC[C@@H]([C@H]2C)[C@@]35OO4)CC1` [Geranylpiperazine-DHA 6, geranylpiperazine-DHA], in series [1], the “HaCat (% LDH release)” value is listed as 17 ± 0.95%. For the same compound, in series [2], the CC50 worked out at 106 ± 3.99 µM. Also, in the series on A375 melanoma cells, the IC50 is 46.9 ± 0.89 µM and the “Therapeutic index (TI)” value came to 2.2.
